Measured values published in patent publication US5906922A, “Delivery of nucleic acids” (Commonwealth Scientific and Industrial Research Organisation, priority 1994, dated 1999).
Where a SMILES comes first, the peptide text is derived from it. The star is where a group is joined. NHC(CH2O-Palmitoyl)3 = CCCCCCCCCCCCCCCC(=O)OCC(COC(=O)CCCCCCCCCCCCCCC)(COC(=O)CCCCCCCCCCCCCCC)N*; X5 = CCCCCCCCCCCCCCCC(=O)OCC(CO)(COC(=O)CCCCCCCCCCCCCCC)N*; NHC(CH2OH)3 = OCC(CO)(CO)N*

Columns and labels:
CHO cells = assay: Transfection of pSVLCAT, CAT assay, CHO; format: cell-based, Chinese Hamster; settings: for CAT activity (mean): "x" peptide experiment a, CHO, 25 μl lysate, 20 min assay at 37° C., optimal level
Protocol: Protocol was the same for Verafectin and Transfectam (see above) with the exception that 0.5 μg of pSVLCAT DNA was used /60 mm dish.
Lipofectamine protocol was according to manufacturer's instructions. 0.5 μg pSVLCAT/60 mm dish. CHO cells seeded 1×10^5 /60 mm dish and adhered overnight in DME/Hams medium with 10% FCS.
Transfectam 5 or 10 μl 1mg/400 μl stock solution.
Lipofectamine 5 or 10 μl 2 mg/ml (mixed formulation 3:1 with DOPE). VerafectinA3 (K3ATP3) and VerafectinG2 (K3G[Glycine]TP2) each at 5, 10 and 15 μl of 2 mM (2.8 and 2.3 mg/ml respectively) stock.
The serum free incubation period in the presence of test agents and DNA was 6 hours, then 1 ml DME/Hams+10% FCS was added. At 24 hrs the medium was changed to 2 ml of fresh DME/Hams+10% FCS until harvest at 48 hrs.
(§1) Cell lines Cos 1 or CHO were transfected with 0.5 μg of pSVLCAT or 2 μg of pPGKlacZ plasmid using a range of concentrations of each transfection compound. The optimal concentration of compound, that is the concentration giving the highest level of CAT at 48 hours or the greatest percentage of lac z (β-galactosidase) staining cells at 24 hours was used to collate data for Table 1. As all compounds were not tested in a single experiment, absolute figures indicating transfection were not used. Rather, symbols are used to indicate the transfection efficiency relative to Lipofectamine (BRL), which was included as a control in all experiments. Table 1 thus indicates the relative efficiencies of a number of compounds in mediating the transfection of at least one cell type.
(§2) All test lipopeptide reagents were originally dissolved at 10 mM in 75% DMSO, and subsequently diluted with water to make a 2 mM stock stored at 4° C. Volumes of 2 mM stock lipopeptide ranging from 2 μl to 15 μl were diluted in 500 μl of DDME. 1 μg of plasmid pSVLCAT was separately diluted in 500 μl of DDME. Solutions were combined for 10-20 min at room temperature before adding to 500 μl of DDME in 60 mm dishes of subconfluent CHO cells (2×10^5 day-1) or Cos 1 cells (5×10^5 day-1); washed free of serum with DDME.
(§3) Cells were incubated for 6 hrs under standard conditions of 37° C. and 5% CO2 for 6 hours. 1.5 ml of DME/Hams+10% FCS (CHO) or DME+10% FCS (Cos 1) was added to the cells for overnight incubation. Fresh DME/Hams+10% FCS or DME+10% FCS was used to replace the medium for a further 24 hours prior to harvest. Cell lysates were prepared and assayed for CAT activity as described above. For Cos 1 cells, culture supernatants were assayed for CAT activity.
a. Using the standard transfection procedure described above, and 1 μg plasmid pSVLCAT, these formulations were tested on CHO cells at a single concentration equivalent to 10 μl of Verafectin A2 (2 mM) per sample and compared to unformulated compound and Lipofectamine in the same cell type. CAT production was assayed 48 hours after transfection.

Cos 1 cells = assay: Transfection of pSVLCAT, CAT assay, Cos 1; format: cell-based, African Green Monkey; settings: for Transfection (CAT): Table 1, Cos 1, optimised level of agent; for CAT activity (mean): 25 μl lysate, 135 min 37° C.
Protocol: To test the transfection properties of the lead compound K3ATP3 (VerafectinA3), whole uncut plasmid carrying the gene encoding CAT (chloramphenicol acetyl transferase) under the control of the SV40 late promoter, pSVLCAT (Cameron, F. H. and Jennings, P. A. (1989) PNAS 86, 9139-9143) was mixed with the test agent and put on Cos 1 cells under various conditions. After 48 hours of culture the level of secreted CAT was assayed from the culture medium.
Solution I: 1 μg Plasmid DNA in 500 μl Dulbeccos Modified Eagles Medium (DME)
Solution II: 0-20 μl VerafectinA3 (2.5 mg/ml 25% DMSO) in 500 μl DME, Vortex
Combine solution I and II, vortex briefly and incubate at room temperature for 10 min.
Add mix to washed cells in 60 mm tissue culture dishes (seeded 0.5×10^6 /dish previous day) for 6 hrs at 37° C., 5% C02. Add 2 ml DME+10% FCS for remainder of 48 hrs. Assay CAT levels in tissue culture medium (Sleigh, M. J. (1986) Anal. Biochem. 156.251-256).
a--Compare VerafectinA3 dissolved in DMSO or ethanol.
b--Compare VerafectinA3 on cells 6 hrs to overnight. VerafectinA3 at 10 mg/ml in 100% solvent was diluted to 2.5 mg/ml with water.
Transfection was carried out as for experiment 1. VerafectinA3 was left in contact with the cells for varying times.
Protocol was the same for the Verafectins as described above. Lipofectamine protocol was according to manufacturers instructions. Cos 1 cells were seeded at 5×10^5 /60 mm dish and adhered overnight in DME with 10% FCS.
Solution A: 0.5 μg pSVLCAT/60 mm dish.
Solution B: Lipofectamine 10 and 15 μl 2 mg/ml (mixed formulation 3:1 with DOPE).
OR; VerafectinA3 and VerafectinG2 20 μl 2 mM (2.8 and 2.3 mg/ml respectively) stock.
OR; VerafectinG2 was also tested with an equimolar amount of DOPE. VerafectinG2 and DOPE were mixed in DDME and vortexed for 30 seconds before use. Solutions A and B were combined before overlaying on washed cells.
The serum free incubation period in the presence of test agents and DNA was 6 hrs, then 1 ml DME+10% FCS was added. At 24 hours medium was changed to 2 ml fresh DME+10% FCS until harvest at 48 hrs.
as §1, §2, §3
For transfection of pSVLCAT and subsequent assay of CAT enzyme, experiments "a" and "b" were carried out as described above.

[1] = "x" peptide experiment b, Cos 1

In the case of `CCCCCCCCCCCCCCCC(=O)OCC(CO)(COC(=O)CCCCCCCCCCCCCCC)NC(=O)[C@H](C)NC(=O)[C@H](CCCCN)NC(=O)[C@H](CCCCN)NC(=O)[C@H](CCCCN)NC(=O)[C@H](CCCCN)NC(=O)[C@@H](N)CCCCN` [K5ATP2] (H-KKKKKA-X5), the “CAT activity (mean)” value (CHO cells) is reported as 132 cpm.

`C[C@H](NC(=O)[C@H](CCCCN)NC(=O)[C@H](CCCCN)NC(=O)[C@@H](N)CCCCN)C(=O)NC(CO)(CO)CO` [K3ATP0] (H-KKKA-{NHC(CH2OH)3}) was tested, and the “Transfection (CAT)” value (Cos 1 cells) was “-”.

With `CCCCCCCCCCCCCCCC(=O)OCC(CO)(COC(=O)CCCCCCCCCCCCCCC)NC(=O)[C@H](C)NC(=O)[C@@H](N)CCCCN` [K1ATP2] the “CAT activity (mean)” value (Cos 1 cells; [1]) was 12670 cpm.

For `CCCCCCCCCCCCCCCC(=O)OCC(COC(=O)CCCCCCCCCCCCCCC)(COC(=O)CCCCCCCCCCCCCCC)NC(=O)CNC(=O)[C@H](CCCCN)NC(=O)[C@H](CCCCN)NC(=O)[C@@H](N)CCCCN` [K3GTP3] (H-KKKG-{NHC(CH2O-Palmitoyl)3}), the “Transfection (CAT)” value (CHO cells; Table 1, CHO, optimised level of agent) was “+” and the “Transfection (CAT)” value (Cos 1 cells) was “+/-”.

`CCCCCCCCCCCCCCCC(=O)OCC(CO)(CO)NC(=O)[C@H](C)NC(=O)[C@H](CCCCN)NC(=O)[C@@H](N)CCCCN` [K2ATP1] was tested, and the “transfection, number of palmitates” value (Cos 1 cells; R1-R4 experiment a, Cos 1, K2 A linker) was “very inefficient”.

In the case of `CCCCCCCCCCCCCCCC(=O)OCC(CO)(COC(=O)CCCCCCCCCCCCCCC)NC(=O)[C@H](C)NC(=O)[C@H](CCCCN)NC(=O)[C@@H](N)CCCCN` [K2ATP2], the “CAT activity (mean)” value (CHO cells) is reported as 5418 cpm, the “transfection with second lysine relative to single K” value (Cos 1 cells; [1]) is reported as about 5 times and the “CAT activity (mean)” value (Cos 1 cells; [1]) is reported as 62,215 cpm. For the same molecule, the “transfection, linkers A and L compared” value (Cos 1 cells; "y" linker experiment b, Cos 1) was “very similar activities”.

In the case of `CCCCCCCCCCCCCCCC(=O)OCC(CO)(COC(=O)CCCCCCCCCCCCCCC)NC(=O)[C@H](C)NC(=O)[C@H](CCCCN)NC(=O)[C@H](CCCCN)NC(=O)[C@H](CCCCN)NC(=O)[C@@H](N)CCCCN` [K4ATP2] (H-KKKKA-X5), the “Transfection (CAT)” value (Cos 1 cells) is reported as “+”.

In the case of `CCCCCCCCCCCCCCCC(=O)OCC(CO)(COC(=O)CCCCCCCCCCCCCCC)NC(=O)[C@H](CCCCN)NC(=O)[C@H](CCCCN)NC(=O)[C@@H](N)CCCCN` [K2KTP2], the “transfection, dipalmitate versus tripalmitate” value (Cos 1 cells; R1-R4 experiment d, Cos 1, lysine linker) is reported as “significantly less active than the tripalmitate molecule”.
